Where two headings read alike, the source gives them in different places.
Legend:
[1] = set-up: species or system human; details: in vivo; for Time post-dose at which Cmax was observed: human
[2] = for Dose reduction due to TEAEs: 2 patients each; for Discontinuation due to study drug related AEs: all patients; for Drug discontinued due to TEAEs: all patients (venetoclax 11, navitoclax 12 patients)
[3] = earlier trial of navitoclax in lymphoid malignancies; cited from earlier work
[4] = system: relapsed/refractory ALL; details: https://www.accessdata.fda.gov/drugsatfda_docs/label/2019/021877s010lbl.pdf; cited from earlier work

Compound	Time post-dose at which Cmax was observed [1] [h]	Dose reduction due to TEAEs [2] [%]	Discontinuation due to study drug related AEs [2] [%]	Drug discontinued due to TEAEs [2] [%]	Survival (median OS) reported in studies [4] [months]	further results
CC1(C)CCC(c2ccc(Cl)cc2)=C(CN2CCN(c3ccc(C(=O)NS(=O)(=O)c4ccc(N[C@H](CCN5CCOCC5)CSc5ccccc5)c(S(=O)(=O)C(F)(F)F)c4)cc3)CC2)C1 [Navitoclax, navitoclax]	4 to 8	4.3	10.6	25.5		Impact on venetoclax pharmacokinetics [1]: no significant impact; Recommended phase II dose (RPTD) ([2]; patients weighing <45 kg, in combination with 400 mg adult-equivalent venetoclax): 25 mg; Recommended phase II dose (RPTD) ([2]; patients weighing ≥45 kg (adults), in combination with 400 mg venetoclax): 50 mg; Maximum tolerated dose [3]: 325 mg/day; Rate of grade 3/4 thrombocytopenia [3]: 52.7%
CC1(C)CCC(CN2CCN(c3ccc(C(=O)NS(=O)(=O)c4ccc(NCC5CCOCC5)c([N+](=O)[O-])c4)c(Oc4cnc5[nH]ccc5c4)c3)CC2)=C(c2ccc(Cl)cc2)C1 [Venetoclax, venetoclax]	6 to 8	4.3	12.8	23.4		Recommended phase II dose ([2]; adult-equivalent, with navitoclax 50 mg (adults) or 25 mg (<45 kg)): 400 mg; Events of laboratory TLS ([2]; quick ramp-up to 400 mg venetoclax): 2 events
COc1nc(N)nc2c1ncn2[C@@H]1O[C@H](CO)[C@@H](O)[C@@H]1O [nelarabine]					4.7	
blinatumomab: bispecific antibody					7.7	
inotuzumab ozogamicin					7.7	
